This passage reports IC50 results from patent publication US11590134B2, “Aminopyrimidine amide autophagy inhibitors and methods of use thereof” (Deciphera Pharmaceuticals, LLC, priority 2019, dated 2023).

One test deals with T1, ULK1 kinase (Homo sapiens, UniProt O75385).
T1 construct: purchased Eurofins 14-959
T1 sequence (O75385 with tags, fused parts or gaps): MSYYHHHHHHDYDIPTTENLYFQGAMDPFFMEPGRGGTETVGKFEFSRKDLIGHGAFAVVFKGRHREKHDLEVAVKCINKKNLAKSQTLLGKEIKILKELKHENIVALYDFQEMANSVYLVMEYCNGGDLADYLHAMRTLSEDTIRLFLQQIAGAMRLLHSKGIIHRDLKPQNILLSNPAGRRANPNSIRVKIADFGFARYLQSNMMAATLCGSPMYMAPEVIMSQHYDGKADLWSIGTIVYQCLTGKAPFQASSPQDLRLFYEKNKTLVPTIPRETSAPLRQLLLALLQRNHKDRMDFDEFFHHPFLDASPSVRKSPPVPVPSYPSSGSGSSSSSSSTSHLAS
The test is described as follows: Biochemical assay for ULK1.2 (coupled pyruvate kinase/lactate dehydrogenase assay). The conditions noted are these: 19 nM ULK1 (residues 1-314), myelin basic protein substrate, 1 mM ATP. The procedure: (§1) Activity of ULK1 kinase was determined spectroscopically using a coupled pyruvate kinase/lactate dehydrogenase assay that continuously monitors the ATP hydrolysis-dependent oxidation of NADH (e.g., Schindler et al. Science (2000) 289: 1938-1942). Assays were conducted in 384-well plates (100 uL final volume) using 19 nM ULK1 (Eurofins CAT #14-959), 0.25 mg/mL myelin basic protein, 1.5 units pyruvate kinase, 2.1 units lactate dehydrogenase, 1 mM phosphoenol pyruvate, 0.28 mM NADH and 1 mM ATP in assay buffer (100 mM Tris, pH 7.5, 15 mM MgCl2, 0.5 mM DTT, 0.1% octyl-glucoside, 0.002% (w/v) BSA, and 0.002% Triton X-100). Inhibition of ULK1 was measured by adding serial diluted test compound (final assay concentration of 1% DMSO). A decrease in absorption at 340 nm was monitored continuously for 6 hours at 30° C. on a multi-mode microplate reader (BioTek). The reaction rate was calculated using the 2-3 h time frame. The reaction rate at each concentration of compound was converted to percent inhibition using controls (i.e. reaction with no test compound and reaction with a known inhibitor) and IC50 values were calculated by fitting a four-parameter sigmoidal curve to the data using Prism (GraphPad software).

For test [1], the system named is ULK kinase substrate ATG13 (phospho-Serine 318 ATG13) in A549 cells. The test is described as follows: pATG13 ELISA in mutant KRas A549 cells in combination with trametinib. It is filed as cell-based. The note with it: A549 (KRAS mutant) human lung cancer cells, with 250 nM trametinib, overnight. The protocol:
A549 (KRAS mutant) human lung cancer cells (6,000 cells/well) were added to a 384-well tissue-culture treated plate in 50 μL of pre-warmed DMEM medium supplemented with 10% characterized fetal bovine serum (Invitrogen, Carlsbad, Calif.), 100 units/mL penicillin G, and 100 μg/mL streptomycin and allowed to grow overnight at 37° C., 5% CO2, and 95% humidity. The following day, 10 μL of media containing trametinib or DMSO as a control was added to wells. The final concentration of trametinib in wells was 250 nM. A dose response of a test compound (0.6 μL per well) was added. DMSO (0.6 μL) was added to control wells. The plate was briefly shaken to mix wells and then incubated at 37° C. overnight. The next day, the media was aspirated and cells were washed with Dulbecco's Phosphate Buffered Saline (Gibco). Cells were lysed using MPER lysis buffer (Pierce, Rockford, Ill.) containing Halt Phosphatase and Protease Inhibitors (Pierce, Rockford, Ill.) and Phosphatase inhibitor cocktail 2 (Sigma, St. Louis, Mo.) at 4° C. for 10 minutes with shaking.
Cellular levels of phospho-Serine 318 ATG13 (pATG13) were measured via an ELISA method. Total ATG13 Antibody (Cell Signaling Cat #13273) was used to coat the wells. The plate was incubated at 4° C. overnight and washed with ELISA wash buffer (Biolegend Cat #421601). The wells were then blocked with assay diluent (Biolegend Cat #421203) for 1 hour at room temperature. Plate wells were washed with ELISA wash buffer. Cell lysate was added to wells and incubated at room temperature for 2 hours. Plate wells were washed with ELISA wash buffer. Biotinylated pS318-ATG13 antibody (Rockland Immunochemicals Cat #600-401-C49) was diluted in assay diluent and added to each well and incubated at room temperature for 1 hour. Plate wells were washed with ELISA wash buffer. Streptavidin linked to horseradish peroxidase (Thermo Fisher Cat #21140) was diluted in assay diluent and added to each well and incubated at room temperature for 1 hour. Plate wells were washed with ELISA wash buffer. High sensitivity TMB substrate (Biolegend Cat #421101) was added to each well and incubated at room temperature for 20 minutes. The reaction was stopped with 2N Sulfuric Acid. The plate was analyzed at on a plate reader measuring absorbance at 450 nm and 540 nm (background). Signal was calculated by first subtracting the background absorbance at 540 nm from the absorbance at 450 nm for each well. Next, the background corrected absorbance at 450 nm from blank wells was subtracted from test wells. Data was compared to control wells to determine % ATG13 phosphorylation. GraphPad Prism was used to calculate IC50 values.

The next test concerns the target T2, LRRK2 kinase (Homo sapiens, UniProt Q5S007).
T2 construct: (residues 970-2528; ID NO; 4); purchased Thermo Fisher
The test can be described thus: Biochemical assay for LRRK2 (coupled pyruvate kinase/lactate dehydrogenase assay). The note with it: 26.4 nM LRRK2 (residues 970-2528), peptide substrate, 1 mM ATP. The procedure:
Activity of LRRK2 kinase was determined spectroscopically using a coupled pyruvate kinase/lactate dehydrogenase assay that continuously monitors the ATP hydrolysis-dependent oxidation of NADH (e.g., Schindler et al. Science (2000) 289: 1938-1942). Assays were conducted in 384-well plates (100 uL final volume) using 26.4 nM LRRK2 (Thermo Fisher), 0.1 mM peptide substrate (RLGRDKYKTLRQIRQ (SEQ ID NO: 6)), 1.5 units pyruvate kinase, 2.1 units lactate dehydrogenase, 1 mM phosphoenol pyruvate, 0.28 mM NADH and 1 mM ATP in assay buffer (100 mM Tris, pH 7.5, 15 mM MgCl2, 0.5 mM DTT, 0.004% (w/v) BSA, and 0.004% Triton X-100). Inhibition of LRRK2 was measured by adding serial diluted test compound (final assay concentration of 1% DMSO). A decrease in absorption at 340 nm was monitored continuously for 6 hours at 30° C. on a multi-mode microplate reader (BioTek). The reaction rate was calculated using the 2-3 h time frame. The reaction rate at each concentration of compound was converted to percent inhibition using controls (i.e. reaction with no test compound and reaction with a known inhibitor) and IC50 values were calculated using software routines in Prism (GraphPad software).

The next test concerns the target T3, ULK2 kinase (Homo sapiens, UniProt Q8IYT8).
T3 construct: purchased Eurofins 14-772
The test is described as follows: Biochemical assay for ULK2 (coupled pyruvate kinase/lactate dehydrogenase assay). The note with it: 9.7 nM ULK2 (residues 1-306), myelin basic protein substrate, 1 mM ATP; read-out: ULK2.2. The procedure: as §1, with “of ULK2” for “of ULK1”, “using 9.7” for “using 19”, “nM ULK2” for “nM ULK1”, “CAT #14-772),” for “CAT #14-959),”

T2 sequence (Q5S007 with tags, fused parts or gaps): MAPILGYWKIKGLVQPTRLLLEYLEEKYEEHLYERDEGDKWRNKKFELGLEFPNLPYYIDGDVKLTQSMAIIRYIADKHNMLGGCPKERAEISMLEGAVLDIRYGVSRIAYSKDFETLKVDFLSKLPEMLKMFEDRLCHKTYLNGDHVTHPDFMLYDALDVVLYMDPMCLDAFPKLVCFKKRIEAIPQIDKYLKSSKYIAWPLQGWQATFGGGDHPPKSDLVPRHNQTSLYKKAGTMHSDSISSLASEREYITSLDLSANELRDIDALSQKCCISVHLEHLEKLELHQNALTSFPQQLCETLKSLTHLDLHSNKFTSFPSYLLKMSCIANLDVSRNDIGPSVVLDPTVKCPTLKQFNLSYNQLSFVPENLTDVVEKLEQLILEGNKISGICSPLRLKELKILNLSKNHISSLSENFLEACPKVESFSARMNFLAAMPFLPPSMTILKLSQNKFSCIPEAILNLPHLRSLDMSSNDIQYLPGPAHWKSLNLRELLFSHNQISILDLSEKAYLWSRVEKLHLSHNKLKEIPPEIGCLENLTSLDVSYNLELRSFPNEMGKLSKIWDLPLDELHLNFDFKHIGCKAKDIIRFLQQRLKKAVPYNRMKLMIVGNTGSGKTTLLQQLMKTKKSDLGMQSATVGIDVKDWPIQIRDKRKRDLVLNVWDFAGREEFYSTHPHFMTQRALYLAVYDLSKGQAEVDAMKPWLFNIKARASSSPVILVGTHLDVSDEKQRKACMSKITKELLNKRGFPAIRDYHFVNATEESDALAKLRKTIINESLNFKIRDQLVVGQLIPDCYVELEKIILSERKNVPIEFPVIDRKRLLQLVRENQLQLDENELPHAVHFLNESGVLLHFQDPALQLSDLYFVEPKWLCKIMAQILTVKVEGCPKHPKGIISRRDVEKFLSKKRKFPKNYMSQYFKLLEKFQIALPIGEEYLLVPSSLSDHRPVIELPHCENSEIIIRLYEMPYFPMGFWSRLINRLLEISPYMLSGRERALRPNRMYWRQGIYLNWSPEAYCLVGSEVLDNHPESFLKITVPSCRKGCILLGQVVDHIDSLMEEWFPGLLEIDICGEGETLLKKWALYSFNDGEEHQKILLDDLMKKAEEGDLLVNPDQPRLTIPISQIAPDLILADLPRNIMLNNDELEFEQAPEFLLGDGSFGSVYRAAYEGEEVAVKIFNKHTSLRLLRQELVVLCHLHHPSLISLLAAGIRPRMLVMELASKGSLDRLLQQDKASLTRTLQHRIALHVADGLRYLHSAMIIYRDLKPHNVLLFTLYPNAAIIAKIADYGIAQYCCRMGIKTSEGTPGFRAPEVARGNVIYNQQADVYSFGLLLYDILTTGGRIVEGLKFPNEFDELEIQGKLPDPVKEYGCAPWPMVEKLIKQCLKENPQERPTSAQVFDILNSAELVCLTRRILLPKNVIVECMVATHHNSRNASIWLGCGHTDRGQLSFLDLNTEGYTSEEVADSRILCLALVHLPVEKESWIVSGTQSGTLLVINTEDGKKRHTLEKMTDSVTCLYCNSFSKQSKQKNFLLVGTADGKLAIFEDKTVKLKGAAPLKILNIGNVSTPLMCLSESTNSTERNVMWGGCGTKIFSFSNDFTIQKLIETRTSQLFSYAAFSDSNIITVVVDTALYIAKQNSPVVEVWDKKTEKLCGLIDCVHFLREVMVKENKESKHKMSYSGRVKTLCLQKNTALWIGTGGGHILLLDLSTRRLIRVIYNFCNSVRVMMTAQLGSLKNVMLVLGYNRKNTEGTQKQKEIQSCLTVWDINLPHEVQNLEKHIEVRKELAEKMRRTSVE
T3 sequence (Q8IYT8 with tags, fused parts or gaps): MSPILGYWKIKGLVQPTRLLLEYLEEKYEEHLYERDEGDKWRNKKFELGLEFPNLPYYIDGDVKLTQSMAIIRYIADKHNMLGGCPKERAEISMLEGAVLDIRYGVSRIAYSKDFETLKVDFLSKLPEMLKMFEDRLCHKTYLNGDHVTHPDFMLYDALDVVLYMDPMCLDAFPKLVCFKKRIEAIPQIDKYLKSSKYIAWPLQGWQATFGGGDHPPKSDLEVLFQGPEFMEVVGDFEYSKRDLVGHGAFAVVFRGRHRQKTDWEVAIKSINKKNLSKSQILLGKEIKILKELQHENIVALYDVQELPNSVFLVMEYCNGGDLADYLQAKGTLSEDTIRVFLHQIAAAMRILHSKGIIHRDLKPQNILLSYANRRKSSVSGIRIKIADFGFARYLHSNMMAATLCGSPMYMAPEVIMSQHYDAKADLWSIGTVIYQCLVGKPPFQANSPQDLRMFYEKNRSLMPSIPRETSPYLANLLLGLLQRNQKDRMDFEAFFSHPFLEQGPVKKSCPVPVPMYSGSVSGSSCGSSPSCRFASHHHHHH

`Cc1cc(N2CCN(C)CC2)ccc1Nc1ncc(C(F)(F)F)c(NCCCNC(=O)C2CCC2)n1` [Example 2]: the IC50 was in the range of 1 to 25 nM against ULK1 kinase, 100 to 300 nM in test [1] and 1 to 100 nM against LRRK2 kinase.

With `Cc1cc(N2CCN(C)CC2)ncc1Nc1ncc(C(F)(F)F)c(NCCCNC(=O)C2CCC2)n1` [Example 5], the IC50 against ULK1 kinase lay within 100 to 500 nM; at ULK2 kinase, 100 to 500 nM; at LRRK2 kinase, 600 to 20000 nM.

Regarding `Cc1cc(N2CCOCC2)ncc1Nc1ncc(C(F)(F)F)c(NCCCNC(=O)C2CCC2)n1` [Example 6], the IC50 against ULK1 kinase was 500 to 20000 nM; on ULK2 kinase it was 500 to 20000 nM; on LRRK2 kinase it was 300 to 600 nM.

Turning to `COc1cc(N2CCN(C)CC2)ccc1Nc1ncc(C2CC2)c(NCCCNC(=O)C2CCC2)n1` [Example 11], the IC50 was 500 to 20000 nM against ULK1 kinase and 600 to 20000 nM at LRRK2 kinase.

As to `Cc1cc(C2CCNCC2)ccc1Nc1ncc(Cl)c(NCCCN(C)C(=O)C2CCC2)n1` [Example 15], the IC50 was 100 to 500 nM against ULK1 kinase and 1 to 100 nM at LRRK2 kinase.

Regarding `Cc1cc(C2CCNCC2)ccc1Nc1ncc(C(F)(F)F)c(NCCCN(C)C(=O)C2CCC2)n1` [Example 16], the IC50 was in the range of 1 to 25 nM at ULK1 kinase, 25 to 100 nM at ULK2 kinase, 100 to 300 nM in test [1] and 1 to 100 nM against LRRK2 kinase.

Turning to `Cc1cc(C2CCN(C)CC2)ccc1Nc1ncc(Cl)c(NCCCN(C)C(=O)C2CCC2)n1` [Example 17], the results for the IC50 against ULK1 kinase and against LRRK2 kinase were 100 to 500 nM and 1 to 100 nM, respectively.

As for `Cc1cc(C2CCN(C)CC2)ccc1Nc1ncc(C(F)(F)F)c(NCCCN(C)C(=O)C2CCC2)n1` [Example 18], the IC50 against ULK1 kinase fell in the range of 1 to 25 nM; against LRRK2 kinase, 1 to 100 nM.

In the case of `[2H]C([2H])([2H])N1CCC(n2cc(Nc3ncc(C(F)(F)F)c(NCCCNC(=O)C4CCC4)n3)c(C)n2)CC1` [Example 20], the IC50 against ULK1 kinase fell in the range of 1 to 25 nM; at ULK2 kinase, 25 to 100 nM; in test [1], 100 to 300 nM; against LRRK2 kinase, 100 to 300 nM.

For the compound `Cc1nn(C2CCNCC2)cc1Nc1ncc(C(F)(F)F)c(NCCCNC(=O)C2CCC2)n1` [Example 21, N-(3-((2-((3-methyl-1-(piperidin-4-yl)-1H-pyrazol-4-yl)amino)-5-(trifluoromethyl)pyrimidin-4-yl)amino)propyl)cyclobutanecarboxamide], the IC50 at ULK1 kinase is 1 to 25 nM; at ULK2 kinase, 25 to 100 nM; in test [1] it was 100 to 300 nM; on LRRK2 kinase, 1 to 100 nM.

Turning to `Cc1nn(C2CCN(C(C)C)CC2)cc1Nc1ncc(C(F)(F)F)c(NCCCNC(=O)C2CCC2)n1` [Example 22, N-(3-((2-((1-(1-isopropylpiperidin-4-yl)-3-methyl-1H-pyrazol-4-yl)amino)-5-(trifluoromethyl)pyrimidin-4-yl)amino)propyl)cyclobutanecarboxamide], the IC50 is 25 to 100 nM on ULK1 kinase, 300 to 600 nM in test [1] and 1 to 100 nM against LRRK2 kinase.

With `Cc1nn(C2CCN(CC(C)C)CC2)cc1Nc1ncc(C(F)(F)F)c(NCCCNC(=O)C2CCC2)n1` [Example 23], the IC50 against ULK1 kinase was in the range of 1 to 25 nM; at ULK2 kinase it was 25 to 100 nM; in test [1] it was 10 to 100 nM; against LRRK2 kinase, 1 to 100 nM.

As for `Cc1nn(C2CCNCC2)cc1Nc1ncc(C2CC2)c(NCCCNC(=O)C2CCC2)n1` [Example 24], the IC50 at ULK1 kinase was in the range of 100 to 500 nM; on LRRK2 kinase it was 600 to 20000 nM.

In the case of `Cc1nn(C2CCN(C)CC2)cc1Nc1ncc(C2CC2)c(NCCCNC(=O)C2CCC2)n1` [Example 25], the values for the IC50 against ULK1 kinase and on LRRK2 kinase were 100 to 500 nM and 600 to 20000 nM, respectively.

As for `Cc1nn(C2CCN(C)CC2)cc1Nc1ncc(Cl)c(NCCCN(C)C(=O)C2CCC2)n1` [Example 27], the IC50 was 1 to 25 nM against ULK1 kinase, 25 to 100 nM on ULK2 kinase and 1 to 100 nM against LRRK2 kinase.

For the compound `[2H]C([2H])([2H])N1CCC(n2cc(Nc3ncc(Br)c(NCCCNC(=O)C4CCC4)n3)c(C)n2)CC1` [Example 29], the IC50 at ULK1 kinase is 25 to 100 nM; on LRRK2 kinase it was 100 to 300 nM.

`Cc1cc(N2CCN(C)CC2)ncc1Nc1cc(NCCCNC(=O)C2CCC2)c(C(F)(F)F)cn1` [Example 31, N-(3-((2-((4-methyl-6-(4-methylpiperazin-1-yl)pyridin-3-yl)amino)-5-(trifluoromethyl)pyridin-4-yl)amino)propyl)cyclobutanecarboxamide] returned an IC50 against ULK1 kinase of 100 to 500 nM.
